Results: patent EP4711369A1, “1H-[1,2,3]TRIAZOLO[4,5-H]QUINAZOLINE COMPOUNDS AS PROTEIN KINASE INHIBITORS” (Chengdu Cynogen Bio-Pharmaceutical Technology Co., Ltd., priority 2023, dated 2024)

Assays:
CDK2/cyclin E = CDK2/cyclin E (Homo sapiens, UniProt P24941); assay: Assay of kinase activity (ADP-Glo); format: biochemical; settings: kinase inhibitory activity, read-out: CDK2/E1 IC50
Procedure, shortened: (§1)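 Kinase preincubated 10 min with compound in 50 mM Hepes, 10 mM MgCl2, 0.01% Brij35, 2 mM DTT, then substrate/ATP added for 60 min at 25 °C. ADP formed measured by ADP-Glo luminescence; IC50 by nonlinear concentration-response fitting.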

CDK4/cyclin D1 = CDK4/cyclin D1 (Homo sapiens, UniProt P11802); assay: Assay of kinase activity (ADP-Glo); format: biochemical; settings: kinase inhibitory activity
Chain of CDK4/cyclin D1 (P11802 whole entry, species assumed): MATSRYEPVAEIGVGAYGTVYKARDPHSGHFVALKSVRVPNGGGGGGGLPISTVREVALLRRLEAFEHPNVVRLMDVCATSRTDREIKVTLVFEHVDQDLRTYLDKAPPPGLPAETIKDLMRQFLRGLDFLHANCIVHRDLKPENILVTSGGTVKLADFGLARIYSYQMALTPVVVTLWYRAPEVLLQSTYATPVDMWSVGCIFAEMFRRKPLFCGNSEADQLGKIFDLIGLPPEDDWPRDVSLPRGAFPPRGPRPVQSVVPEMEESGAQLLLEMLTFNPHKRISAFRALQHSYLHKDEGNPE
Chain of CDK4/cyclin D1 (P24385 whole entry partner, species assumed): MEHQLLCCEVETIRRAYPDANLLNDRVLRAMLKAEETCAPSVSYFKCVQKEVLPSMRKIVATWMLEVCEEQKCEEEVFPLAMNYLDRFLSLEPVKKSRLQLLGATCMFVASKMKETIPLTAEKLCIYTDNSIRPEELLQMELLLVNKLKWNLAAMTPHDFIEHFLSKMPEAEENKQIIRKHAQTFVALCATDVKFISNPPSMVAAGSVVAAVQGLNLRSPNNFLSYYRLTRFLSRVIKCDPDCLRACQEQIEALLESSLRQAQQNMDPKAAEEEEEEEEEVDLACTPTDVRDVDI
Procedure, shortened: as §1

CDK6/cyclin D3 = CDK6/cyclin D3 (Homo sapiens, UniProt Q00534); assay: Assay of kinase activity (ADP-Glo); format: biochemical; settings: kinase inhibitory activity
Chain of CDK6/cyclin D3 (Q00534 whole entry, species assumed): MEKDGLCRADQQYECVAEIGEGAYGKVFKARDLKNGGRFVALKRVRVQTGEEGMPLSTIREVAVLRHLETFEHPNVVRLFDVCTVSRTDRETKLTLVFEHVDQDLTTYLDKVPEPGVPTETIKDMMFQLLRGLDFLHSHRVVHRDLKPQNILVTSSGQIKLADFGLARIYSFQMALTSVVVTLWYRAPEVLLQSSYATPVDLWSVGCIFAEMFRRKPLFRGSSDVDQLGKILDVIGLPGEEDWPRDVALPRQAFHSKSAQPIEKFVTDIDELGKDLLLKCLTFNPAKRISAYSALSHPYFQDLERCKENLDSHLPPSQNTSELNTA
Chain of CDK6/cyclin D3 (P30281 whole entry partner, species assumed): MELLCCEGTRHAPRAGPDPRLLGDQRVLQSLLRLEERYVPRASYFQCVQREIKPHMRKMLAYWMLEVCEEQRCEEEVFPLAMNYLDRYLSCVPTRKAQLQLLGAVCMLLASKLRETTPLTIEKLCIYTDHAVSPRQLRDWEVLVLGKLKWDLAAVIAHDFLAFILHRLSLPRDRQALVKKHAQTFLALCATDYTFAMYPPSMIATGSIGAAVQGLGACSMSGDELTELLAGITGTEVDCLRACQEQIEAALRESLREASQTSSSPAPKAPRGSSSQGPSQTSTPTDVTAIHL
Procedure, shortened: (§2)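 ADP production quantified by luminescence after 60 min kinase reaction at 25 °C, started with substrate/ATP following 10 min enzyme-compound preincubation. Buffer: 50 mM Hepes, 10 mM MgCl2, 0.01% Brij35, 2 mM DTT. IC50 obtained by nonlinear curve fitting of inhibition data.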

CDK9/cyclin T1 = CDK9/cyclin T1 (Homo sapiens, UniProt P50750); assay: Assay of kinase activity (ADP-Glo); format: biochemical; settings: kinase inhibitory activity
Chain of CDK9/cyclin T1 (P50750 whole entry, species assumed): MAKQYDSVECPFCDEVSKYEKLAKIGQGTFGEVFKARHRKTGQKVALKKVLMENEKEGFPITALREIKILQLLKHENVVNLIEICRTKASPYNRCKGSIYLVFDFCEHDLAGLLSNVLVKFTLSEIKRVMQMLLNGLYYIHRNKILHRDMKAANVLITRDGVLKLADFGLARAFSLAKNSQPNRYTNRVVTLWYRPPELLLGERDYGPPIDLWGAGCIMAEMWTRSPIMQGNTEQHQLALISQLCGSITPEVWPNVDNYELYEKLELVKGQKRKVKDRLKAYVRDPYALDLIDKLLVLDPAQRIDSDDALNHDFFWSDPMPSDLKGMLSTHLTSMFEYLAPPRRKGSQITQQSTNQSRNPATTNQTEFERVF
Chain of CDK9/cyclin T1 (O60563 whole entry partner, species assumed): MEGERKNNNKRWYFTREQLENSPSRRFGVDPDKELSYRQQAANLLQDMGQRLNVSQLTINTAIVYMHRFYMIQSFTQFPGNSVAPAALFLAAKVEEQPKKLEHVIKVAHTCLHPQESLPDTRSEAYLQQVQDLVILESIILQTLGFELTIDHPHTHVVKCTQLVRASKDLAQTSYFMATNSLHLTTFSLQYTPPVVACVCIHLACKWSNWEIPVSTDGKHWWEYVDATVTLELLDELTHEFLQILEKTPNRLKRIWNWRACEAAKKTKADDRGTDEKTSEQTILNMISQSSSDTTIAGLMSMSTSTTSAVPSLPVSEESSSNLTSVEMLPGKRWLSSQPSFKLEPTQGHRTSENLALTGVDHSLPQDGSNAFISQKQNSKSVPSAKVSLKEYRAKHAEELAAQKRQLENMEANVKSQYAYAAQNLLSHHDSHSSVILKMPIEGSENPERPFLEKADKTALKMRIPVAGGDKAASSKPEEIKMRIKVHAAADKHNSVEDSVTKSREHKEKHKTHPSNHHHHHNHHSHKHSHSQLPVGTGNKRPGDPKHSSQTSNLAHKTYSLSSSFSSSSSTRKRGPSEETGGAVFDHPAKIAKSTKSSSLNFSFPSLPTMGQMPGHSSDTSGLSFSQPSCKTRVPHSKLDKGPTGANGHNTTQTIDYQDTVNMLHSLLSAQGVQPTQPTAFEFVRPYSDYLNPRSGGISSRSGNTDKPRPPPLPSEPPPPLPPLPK
Procedure, shortened: as §2

[1] = tested on: human acute myeloid leukemia MV-4-11 cells; assay: Assay of cell proliferation (CellTiter-Glo); format: cell-based; settings: MV4-11, 144 h, 6 days, read-out: MV-4-11 IC50 of cell proliferation inhibitory activity
Procedure, shortened: (§3)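 Cells seeded per line at growth-adapted densities, treated 6 days at 37 °C/5% CO2 with nine 3-fold dilutions (10 µM to 0.1 nM final, 0.5% DMSO). Viability by CellTiter-Glo luminescence; IC50 from four-parameter fit.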

[2] = tested on: human breast cancer HCC1806 cells; assay: Assay of cell proliferation (CellTiter-Glo); format: cell-based; settings: Homo sapiens, 144 h, 6 days, read-out: HCC1806 IC50 of cell proliferation inhibitory activity
Procedure, shortened: as §3

[3] = tested on: human breast cancer MCF-7 cells; assay: Assay of cell proliferation (CellTiter-Glo); format: cell-based; settings: 144 h, MCF7 cells, 6 days, read-out: MCF7 IC50 of cell proliferation inhibitory activity
Procedure, shortened: as §3

[4] = tested on: human colon cancer HCT-116 cells; assay: Assay of cell proliferation (CellTiter-Glo); format: cell-based; settings: 144 h, 6 days, read-out: HCT-116 IC50 of cell proliferation inhibitory activity
Procedure, shortened: as §3

[5] = tested on: human gastric cancer MKN1 cells; assay: Assay of cell proliferation (CellTiter-Glo); format: cell-based; settings: Homo sapiens, MKN-1, 144 h; MNK1, 6 days; read-out: MKN1 IC50 of cell proliferation inhibitory activity
Procedure, shortened: as §3

[6] = tested on: Human ovarian cancer OVCAR3 cells; assay: Assay of cell proliferation (CellTiter-Glo); format: cell-based; settings: Homo sapiens, OVCAR-3, 144 h, 6 days, read-out: OVCAR3 IC50 of cell proliferation inhibitory activity
Procedure, shortened: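 OVCAR3 cells, 2000/well in RPMI 1640 with 20% FBS, treated with nine 3-fold dilutions from 10 µM to 0.1 nM (0.5% DMSO) for 6 days at 37 °C. Viability by CellTiter-Glo luminescence; IC50 by four-parameter fit.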

| SMILES | IC50 (CDK2/cyclin E) [nM] | IC50 (CDK4/cyclin D1) [nM] | IC50 (CDK6/cyclin D3) [nM] | IC50 (CDK9/cyclin T1) [nM] | IC50 [1] [nM] | IC50 [2] [nM] | IC50 [3] [nM] | IC50 [4] [nM] | IC50 [5] [nM] | IC50 [6] [nM] |
| --- | --- | --- | --- | --- | --- | --- | --- | --- | --- | --- |
| CC(C)n1nnc2ccc3cnc(Nc4ccc(C(=O)N5CCNCC5)c(F)c4)nc3c21 [Example I-19, (2-Fluoro-4-((1-isopropyl-1H-[1,2,3]triazolo[4,5-H]quinazolin-8-yl)amino)phenyl)(piperazin-1-yl)methanone] | 1 | 2 | 12 | 8 | 10 | 379 | 42 | 21 | 85 | 49 |
| CC(C)n1nnc2ccc3cnc(Nc4ccc(C(=O)N5CC[C@H](N)C5)cc4)nc3c21 [Example I-4, (S)-(3-Aminopyrrolidin-1-yl)(4-((1-isopropyl-1H-[1,2,3]triazolo[4,5-H]quinazolin-8-yl)amino)phenyl)methanone] | 0.08 | 0.5 | 8 | 5 | 3 | 24 | 18 | 25 | 8 | 12 |
| CC(C)n1nnc2ccc3cnc(Nc4ccc(C(=O)N5CCC(O)CC5)cc4)nc3c21 [Example I-36, (4-Hydroxypiperidin-1-yl)(4-((1-isopropyl-1H-[1,2,3]triazolo[4,5-H]quinazolin-8-yl)amino)phenyl)metha none] | 0.8 | 4 | 16 | 11 | 15 | 403 | 167 | 80 | 28 | 140 |
| CC(C)n1nnc2ccc3cnc(Nc4ccc(C(=O)N5CCC(O)C5)cc4)nc3c21 (stereo not drawn) [Example I-3, (3-Hydroxypyrrolidin-1-yl)(4-((1-isopropyl-1H-[1,2,3]triazolo[4,5-H]quinazolin-8-yl)amino)phenyl)methanone] | 0.4 | 1 | 4 | 6 | – | 302 | – | 94 | 196 | 203 |
| C[C@@]1(O)CCC[C@H]1n1nnc2ccc3cnc(Nc4ccc(C(=O)N5CCOCC5)cc4)nc3c21 [Example I-67, (4-((1-((1R,2R)-2-Hydroxy-2-methylcyclopentyl)-1H-[1,2,3]triazolo[4,5-H]quinazolin-8-yl)amino)phenyl)(morpholino)methanone] | 1 | 2 | 21 | 46 | 5 | 137 | – | – | 13 | 45 |
| C[C@@H](n1nnc2ccc3cnc(Nc4ccc(C(=O)N5CC[C@H](N)C5)cc4)nc3c21)C(C)(C)O [Example I-54, ((S)-3-Aminopyrrolidin-1-yl)(4-((1-((R)-3-hydroxy-3-methylbutan-2-yl)-1H-[1,2,3]triazolo[4,5-h]quinazolin-8-yl)amino)phenyl)methanone] | 1 | 2 | 16 | 8 | 7 | 268 | – | – | 49 | 192 |
| C[C@@H](n1nnc2ccc3cnc(Nc4ccc(C(=O)N5CCN(C)CC5)cc4)nc3c21)C(C)(C)O [Example I-57, (R)-(4-((1-(3-Hydroxy-3-methylbutan-2-yl)-1H-[1,2,3]triazolo[4,5-H]quinazolin-8-yl)amino)phenyl)(4-methylpiperazin-1-yl)methanone] | 0.9 | 1 | 4 | 23 | 11 | 465 | – | – | 17 | 32 |
| CC(C)n1nnc2ccc3cnc(Nc4ccc(C(=O)N5C[C@@H](C)N[C@@H](C)C5)cc4)nc3c21 [Example I-23, ((3R,5S)-3,5-dimethylpiperazin-1-yl)(4-((1-isopropyl-1H-[1,2,3]triazolo[4,5-H]quinazolin-8-yl)amino)phenyl)metha none] | 0.4 | 3 | 35 | 24 | 4 | 112 | – | – | 57 | 73 |
| CC(C)N[C@H]1CCN(C(=O)c2ccc(Nc3ncc4ccc5nnn(C(C)C)c5c4n3)cc2)C1 [Example I-8, (S)-(4-((1-Isopropyl-1H-[1,2,3]triazolo[4,5-H]quinazolin-8-yl)amino)phenyl)(3-(isopropylamino)pyrrolidin-1-yl)methanone] | 0.1 | 0.8 | 19 | 3 | 2 | 16 | – | – | 4 | 7 |
| CC(C)n1nnc2ccc3cnc(Nc4ccc(C(=O)N5CCC(N(C)C)CC5)c(F)c4)nc3c21 [Example I-17, (4-(Dimethylamino)piperidin-1-yl)(2-fluoro-4-((1-isopropyl-1H-[1,2,3]triazolo[4,5-H]quinazolin-8-yl)amino)phenyl)metha none] | 0.8 | 2 | 190 | 60 | 12 | 319 | – | – | 46 | 93 |
| CC1(O)CCCC1n1c(=O)c(C(F)F)cc2cnc(NC3CCN(S(C)(=O)=O)CC3)nc21 (stereo not drawn) [PF06873600 (Ebvaciclib), reference compound] | – | – | – | 452 | 100 | 481 | 24 | 69 | 77 | 118 |
| CC(C)n1nnc2ccc3cnc(Nc4ccc(C(=O)N5CC6CCC(C5)N6)cc4)nc3c21 [Example I-25, (3,8-Diazabicyclo[3.2.1]octan-3-yl)(4-((1-isopropyl-1H-[1,2,3]triazolo[4,5-H]quinazolin-8-yl)amino)phenyl)metha none] | 0.2 | 1 | 29 | 16 | 4 | 85 | – | – | 13 | 33 |
| CC(C)n1nnc2ccc3cnc(Nc4ccc(C(=O)N5CCCN(C)CC5)cc4)nc3c21 [Example I-34, (4-((1-Isopropyl-1H-[1,2,3]triazolo[4,5-H]quinazolin-8-yl)amino)phenyl)(4-methyl-1,4-diazepan-1-yl)methanone] | 0.09 | 0.7 | 19 | 2 | 2 | 6 | – | – | 5 | 7 |
| CN(C)[C@H]1CCN(C(=O)c2ccc(Nc3ncc4ccc5nnn([C@@H]6CCC[C@@]6(C)O)c5c4n3)cc2)C1 [Example I-64, ((S)-3-(Dimethylamino)pyrrolidin-1-yl)(4-((1-((1R,2R)-2-hydroxy-2-methylcyclopentyl)-1H-[1,2,3]triazolo[4,5-H]quinazolin-8-yl)amino)phenyl)methanone] | 0.1 | 0.6 | 4 | 3 | 2 | 12 | – | – | 3 | 7 |
| C[C@@H](n1nnc2ccc3cnc(Nc4ccc(C(=O)N5CCNCC5)cc4)nc3c21)C(C)(C)O [Example I-56, (R)-(4-((1-(3-Hydroxy-3-methylbutan-2-yl)-1H-[1,2,3]triazolo[4,5-H]quinazolin-8-yl)amino)phenyl)(piperazin-1-yl)methanone] | 0.8 | 1 | 4 | 15 | 11 | 365 | – | – | 81 | 275 |
| CC(C)n1nnc2ccc3cnc(Nc4ccc(C(=O)N5CCN[C@H](C)C5)cc4)nc3c21 [Example I-21, (R)-(4-((1-Isopropyl-1H-[1,2,3]triazolo[4,5-H]quinazolin-8-yl)amino)phenyl)(3-methylpiperazin-1-yl)methanone] | 0.5 | 1 | 14 | 2 | 4 | 112 | – | – | 31 | 35 |
| CC(C)n1nnc2ccc3cnc(Nc4ccc(C(=O)N5CCS(=O)(=O)CC5)cc4)nc3c21 [Example I-32, (1,1-Dioxothiomorpholino)(4-((1-isopropyl-1H-[1,2,3]triazolo[4,5-H]quinazolin-8-yl)amino)phenyl)metha none] | 3 | 15 | 230 | 315 | 9 | 167 | – | – | 44 | 80 |
